Test results as given in the NIST ThermoML archive (doi:10.1016/j.jct.2006.09.003).
± gives the expanded uncertainty stated by the source.

Settings: Fluid (supercritical or subcritical phases), Bellows volumetry

CCCC [butane]
mass density [kg/m3]
Settings	280 K	300 K	320 K	340 K	360 K	380 K
1000 kPa	595.47 ± 1.1	572.94 ± 1	548.24 ± 0.99	521.26 ± 0.94	–	–
2000 kPa	596.86 ± 1.1	574.58 ± 1	550.53 ± 0.99	524.21 ± 0.94	494.28 ± 0.89	456.63 ± 0.82
3000 kPa	598.22 ± 1.1	576.27 ± 1	552.73 ± 0.99	527.06 ± 0.95	498.49 ± 0.9	463.53 ± 0.83
5000 kPa	600.88 ± 1.1	579.56 ± 1	556.84 ± 1	532.46 ± 0.96	505.91 ± 0.91	474.94 ± 0.86
10000 kPa	607.05 ± 1.1	586.77 ± 1.1	566.09 ± 1	544.06 ± 0.98	520.98 ± 0.94	495.21 ± 0.89
20000 kPa	617.68 ± 1.1	599.44 ± 1.1	580.87 ± 1.1	561.99 ± 1	542.91 ± 0.98	522.42 ± 0.94
30000 kPa	626.91 ± 1.1	610.13 ± 1.1	593.19 ± 1.1	576.2 ± 1	559.24 ± 1	541.49 ± 0.98
40000 kPa	635.29 ± 1.1	619.89 ± 1.1	603.68 ± 1.1	588.27 ± 1.1	572.58 ± 1	556.53 ± 1
50000 kPa	642.77 ± 1.2	628.14 ± 1.1	612.97 ± 1.1	598.47 ± 1.1	584.17 ± 1.1	569.05 ± 1
60000 kPa	649.44 ± 1.2	635.82 ± 1.1	621.23 ± 1.1	607.64 ± 1.1	593.9 ± 1.1	580.01 ± 1.1
70000 kPa	655.79 ± 1.2	642.36 ± 1.2	628.85 ± 1.1	615.81 ± 1.1	602.93 ± 1.1	589.59 ± 1.1
80000 kPa	661.73 ± 1.2	648.71 ± 1.2	635.85 ± 1.1	623.32 ± 1.1	610.9 ± 1.1	598.34 ± 1.1
90000 kPa	667.23 ± 1.2	654.83 ± 1.2	642.47 ± 1.2	630.37 ± 1.1	618.47 ± 1.1	606.19 ± 1.1
100000 kPa	672.51 ± 1.2	660.41 ± 1.2	648.38 ± 1.2	636.58 ± 1.1	625.39 ± 1.1	613.44 ± 1.1
120000 kPa	682.08 ± 1.8	670.68 ± 1.2	659.38 ± 1.2	648.45 ± 2.9	637.62 ± 1.2	626.58 ± 1.1
140000 kPa	690.89 ± 1.8	680.05 ± 1.2	669.21 ± 1.2	658.64 ± 2.9	648.76 ± 1.2	638.25 ± 1.2
160000 kPa	698.82 ± 1.8	688.48 ± 1.3	678.31 ± 1.2	668.16 ± 3	658.47 ± 1.2	648.59 ± 1.2
180000 kPa	706.38 ± 1.9	696.25 ± 1.3	686.49 ± 1.3	676.9 ± 3	667.68 ± 1.2	658.14 ± 1.2
200000 kPa	713.34 ± 1.9	703.51 ± 1.3	694.12 ± 1.3	684.85 ± 3	676.03 ± 1.3	666.86 ± 1.2
